{"source": "paper PMC9743128", "about": "“Phenotype-based screening rediscovered benzopyran-embedded microtubule inhibitors as anti-neuroinflammatory agents by modulating the tubulin–p65 interaction” (Experimental & Molecular Medicine, 2022)", "key": {"IκB in J774A.1 cells": {"test_system": "IκB in J774A.1 cells", "experiment": "Western blot of IκB", "assay_type": "cell-based", "details": "murine macrophage cells; inhibited by MG132 pretreatment", "method": "The proteome was analyzed by SDS‒PAGE and transferred to PVDF membranes (Bio-Rad; BR162-0177). The membranes were blocked with 2% BSA in Tris-buffered saline containing 0.1% Tween-20 (TBST) for 1 h. To detect the desired proteins, the membranes were incubated overnight at 4 °C with the primary antibodies—1:1000 dilution of α-tubulin (CST; #3873), β-tubulin (CST; #2146), IκB (CST; #4814), caspase-1 (CST; #24232), cleaved caspase-1 (CST; #89332), IL-1β (CST; #31202), cleaved IL-1β (CST; #63124), acetylated α-tubulin (CST; #5335), p65 (Abcam; ab16502), FLAG (Abcam; ab49763); and 1:2,000 dilution of GAPDH (CST; #2118), β-actin (CST; #4970), and LMNB1 (Abcam; ab16048). After washing with TBST, the resulting membranes were exposed to HRP-conjugated secondary antibody—1:5000 dilution of anti-rabbit (CST; #7074) and anti-mouse (CST; #7076)—for 1 h at room temperature. After washing with TBST, the membranes were incubated with an enhanced chemiluminescence (ECL) prime kit (Cytiva; RPN2232). Chemiluminescent signals from the desired proteins were detected using ChemiDoc. […]\nTo understand the inhibitory mechanism of p65 nuclear translocation by SB26019, the expression levels of p65, IκB, and tubulin monomers were monitored upon SB26019 treatment in murine macrophage cells. […] To test this hypothesis, we monitored protein‒protein interactions among p65, IκB, and tubulin with immunoprecipitation. […]"}, "J774A.1 cells": {"test_system": "J774A.1 cells", "experiment": "Flow cytometry cell cycle analysis (PI staining)", "assay_type": "cell-based, murine", "method": "NF-κB SEAP reporter HEK293T cell (Invivogen; hkb-mmcl) were seeded 10,000 cells/well at white 96-well plate (Falcon; 353296). HEK293 cells were transfected with a 1 to 1 ratio of 3xAP1pGL3 (Addgene; #40342) and pRL-TK (Promega; E2241) mixture using LTX plus (Invitrogen; 15338100) and opti-MEM (Gibco; 31985070) according to the manufacturer's protocol. After 24-h compound treatment or the overexpression of α-tubulin or GFP, 40 μl of the medium was transferred to a 96-well plate and mixed with 180 μl of quanti-blue solution (Invitrogen; rep-qbs) for the measurement of NF-κB activation. We measured the absorbance at 655 nm after 2-h incubation at 37 °C. To measure the AP-1 activation, cells were washed with PBS and lysed with 20 μl of 1× passive lysis buffer for 15 min. Luciferase signals were measured by dual-luciferase reporter assay system (Progema; E1980) using a microplate reader (BioTek; Synergy HTX). Expression levels of SEAP and AP-1 were normalized by renilla luciferase signal.\nJ774A.1 cells were treated with each compound for the designated time and dose. The cells were trypsinized and re-suspended in PBS containing 2% FBS (Gibco; #16000-044). To measure cell cycle arrest, the same number of the re-suspended cells was stained with propidium iodide (PI) (Abcam; ab14085) according to the manufacturer’s protocol. […]"}, "[1]": {"experiment": "Cell viability assay (EZ-Cytox)", "details": "mouse, BV-2 microglial cells", "protocol": "(§1) A total of 40,000 cells were seeded on a 96-well plate and incubated for 18 h. After 6-, 12- and 24-h compound treatment, 10 μL of EZ-Cytox solution (Dogen; EZ-BULK150) was added to the 96-well plate. After 30 min, the absorbance at 455 nm was measured using a microplate reader (BioTek; Synergy).\n(§2) (n=6). Data are presented as the mean ± SD."}, "BV-2 cells": {"test_system": "BV-2 cells", "experiment": "Cell viability assay (EZ-Cytox)", "details": "BV-2, various time points", "protocol": "as §1, §2"}, "[2]": {"test_system": "p65 nuclear translocation in J774A.1 and RAW264.7 cells", "experiment": "p65 nuclear translocation by immunofluorescence staining", "assay_type": "cell-based, murine", "details": "10 μM for 1 h, then LPS; LPS alone 80%, basal 40%", "method": "To monitor p65 translocation, J774A.1 cells were treated with compounds for 1 h, followed by LPS (100 ng/ml) treatment for 30 min. The cells were fixed with 4% paraformaldehyde (Sigma; #158127) in PBS (w/v) for 30 min at room temperature. After washing with 1× PBS (Welgene; ML008-02) three times, the fixed cells were permeabilized with PBS containing 0.1% Triton X-100 for 10 min. The cells were washed with 1× PBS three times and then blocked with 4% bovine serum albumin (MP Biomedicals; #0216006980) in PBS (w/v) for 1 h. The cells were incubated with mouse anti-p65 antibody (Santa Cruz; sc-8008, 1:200 diluted in 1% BSA–PBS) at 4 °C overnight and washed with PBS three times. FITC-labeled goat anti-mouse IgG antibody (Abcam; ab6785, 1:200 diluted in 1% BSA–PBS) was added to the sample and incubated for 1 h at room temperature. The remaining antibodies were finally washed three times with PBS. Nuclei were stained with Hoechst 33342 (Thermo; #62249). The cellular p65 proteins were imaged by fluorescence microscopy (GE Healthcare; Delta Vision) and quantified by the line profiling method.\nDuring activation of the NF-κB signaling pathway, IκB is phosphorylated and degraded by proteasomes. The released p65 from IκB is translocated to the nucleus, inducing the transcription of target genes for inflammatory responses. Therefore, we monitored the translocation of p65 upon SB26019 treatment in J774A.1 and RAW264.7 murine macrophage cells stained with fluorescently labeled antibodies. […]"}}, "data": [{"compound": "COc1ccc2c(c1O)OC(C)(C)C=C2c1cccc2c1oc1ccccc12", "note": "[Compound 8]", "values": [{"measurement": "IκB degradation", "setting": "IκB in J774A.1 cells", "value": "induced IκB degradation in a time- and dose-dependent manner"}, {"measurement": "Cell cycle arrest", "setting": "J774A.1 cells", "value": "no cell cycle arrest"}, {"measurement": "viability at 10 µM", "setting": "[1]", "value": 108, "unit": "%"}, {"measurement": "Cytotoxicity (cell viability curve)", "setting": "BV-2 cells", "value": "without considerable cytotoxicity"}, {"measurement": "p65 nuclear translocation in the presence of LPS", "setting": "[2]", "value": "< 60", "unit": "%"}]}]}
